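Cells were grown in 96-well plates and exposed to each compound for 48 hours at five concentrations; endpoints were interpolated linearly between bracketing concentrations, or set to the highest concentration if not reached. GI50 = concentration required for 50% inhibition of growth. The concentration for full growth arrest is given as TGI.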
Tests used:
Assay in all cases: NCI anticancer screen, dose series, 48 h
K-562 leukemia = system: K-562 leukemia
OVCAR-5 ovarian = system: OVCAR-5 ovarian
SF-539 CNS = system: SF-539 CNS
HL-60(TB) leukemia = system: HL-60(TB) leukemia
CCRF-CEM leukemia = system: CCRF-CEM leukemia
UACC-257 melanoma = system: UACC-257 melanoma
ACHN renal = system: ACHN renal
OVCAR-8 ovarian = system: OVCAR-8 ovarian
HCT-15 colon = system: HCT-15 colon
HOP-62 NSCLC = system: HOP-62 NSCLC
T-47D breast = system: T-47D breast
SK-OV-3 ovarian = system: SK-OV-3 ovarian
HT29 colon = system: HT29 colon
HOP-92 NSCLC = system: HOP-92 NSCLC
SF-268 CNS = system: SF-268 CNS
HCT-116 colon = system: HCT-116 colon
COLO 205 colon = system: COLO 205 colon
UACC-62 melanoma = system: UACC-62 melanoma
MOLT-4 leukemia = system: MOLT-4 leukemia
PC-3 prostate = system: PC-3 prostate
SN12C renal = system: SN12C renal
SF-295 CNS = system: SF-295 CNS
NCI-H460 lung = system: NCI-H460 lung
NCI-H522 lung = system: NCI-H522 lung
SK-MEL-2 melanoma = system: SK-MEL-2 melanoma
U251 CNS = system: U251 CNS
BT-549 breast = system: BT-549 breast
SR leukemia = system: SR leukemia
LOX IMVI melanoma = system: LOX IMVI melanoma
IGROV1 ovarian = system: IGROV1 ovarian
NCI-H226 lung = system: NCI-H226 lung
DU-145 prostate = system: DU-145 prostate
NCI/ADR-RES ovarian = system: NCI/ADR-RES ovarian
M14 melanoma = system: M14 melanoma
SNB-75 CNS = system: SNB-75 CNS
CAKI-1 renal = system: CAKI-1 renal
786-0 renal = system: 786-0 renal
RXF 393 renal = system: RXF 393 renal
OVCAR-4 ovarian = system: OVCAR-4 ovarian
TK-10 renal = system: TK-10 renal
UO-31 renal = system: UO-31 renal
SW-620 colon = system: SW-620 colon
NCI-H23 lung = system: NCI-H23 lung
HS 578T breast = system: HS 578T breast
OVCAR-3 ovarian = system: OVCAR-3 ovarian
RPMI-8226 leukemia = system: RPMI-8226 leukemia
SK-MEL-5 melanoma = system: SK-MEL-5 melanoma
SK-MEL-28 melanoma = system: SK-MEL-28 melanoma
A549 NSCLC = system: A549 NSCLC
EKVX NSCLC = system: EKVX NSCLC
MDA-MB-231 breast = system: MDA-MB-231 breast
HCC-2998 colon = system: HCC-2998 colon
MCF7 breast = system: MCF7 breast
SNB-19 CNS = system: SNB-19 CNS
KM12 colon = system: KM12 colon
MDA-MB-435 = system: MDA-MB-435

O=C(Nc1ccc(-c2ccccc2)cc1)C1CCN(S(=O)(=O)c2ccccc2Cl)CC1
GI50 (K-562 leukemia): 71.8 µM | TGI (K-562 leukemia): > 100 µM | GI50 (OVCAR-5 ovarian): 50 µM | TGI (OVCAR-5 ovarian): > 100 µM | GI50 (SF-539 CNS): 12 µM | TGI (SF-539 CNS): 37.3 µM | GI50 (HL-60(TB) leukemia): > 100 µM | TGI (HL-60(TB) leukemia): > 100 µM | GI50 (CCRF-CEM leukemia): 74.2 µM | TGI (CCRF-CEM leukemia): > 100 µM | GI50 (UACC-257 melanoma): 28.1 µM | TGI (UACC-257 melanoma): > 100 µM | GI50 (ACHN renal): 21.9 µM | TGI (ACHN renal): 57 µM | GI50 (OVCAR-8 ovarian): 22.7 µM | TGI (OVCAR-8 ovarian): 57.1 µM | GI50 (HCT-15 colon): 77.4 µM | TGI (HCT-15 colon): > 100 µM | GI50 (HOP-62 NSCLC): 18.8 µM | TGI (HOP-62 NSCLC): 40.9 µM | GI50 (T-47D breast): > 100 µM | TGI (T-47D breast): > 100 µM | GI50 (SK-OV-3 ovarian): 57.4 µM | TGI (SK-OV-3 ovarian): > 100 µM | GI50 (HT29 colon): > 100 µM | TGI (HT29 colon): > 100 µM | GI50 (HOP-92 NSCLC): 32.2 µM | TGI (HOP-92 NSCLC): 91.2 µM | GI50 (SF-268 CNS): 39 µM | TGI (SF-268 CNS): > 100 µM | GI50 (HCT-116 colon): 39.4 µM | TGI (HCT-116 colon): > 100 µM | GI50 (COLO 205 colon): > 100 µM | TGI (COLO 205 colon): > 100 µM | GI50 (UACC-62 melanoma): 39.8 µM | TGI (UACC-62 melanoma): > 100 µM | GI50 (MOLT-4 leukemia): > 100 µM | TGI (MOLT-4 leukemia): > 100 µM | GI50 (PC-3 prostate): 38 µM | TGI (PC-3 prostate): > 100 µM | GI50 (SN12C renal): 26.9 µM | TGI (SN12C renal): 90.2 µM | GI50 (SF-295 CNS): 24.4 µM | TGI (SF-295 CNS): > 100 µM | GI50 (NCI-H460 lung): 40.8 µM | TGI (NCI-H460 lung): > 100 µM | GI50 (NCI-H522 lung): 22.4 µM | TGI (NCI-H522 lung): > 100 µM | GI50 (SK-MEL-2 melanoma): 49.7 µM | TGI (SK-MEL-2 melanoma): > 100 µM | GI50 (U251 CNS): 18.8 µM | TGI (U251 CNS): 67.3 µM | GI50 (BT-549 breast): 13.9 µM | TGI (BT-549 breast): 56.3 µM | GI50 (SR leukemia): 36.2 µM | TGI (SR leukemia): > 100 µM | GI50 (LOX IMVI melanoma): 27.7 µM | TGI (LOX IMVI melanoma): > 100 µM | GI50 (IGROV1 ovarian): 21.4 µM | TGI (IGROV1 ovarian): > 100 µM | GI50 (NCI-H226 lung): 30.2 µM | TGI (NCI-H226 lung): > 100 µM | GI50 (DU-145 prostate): 27.9 µM | TGI (DU-145 prostate): > 100 µM | GI50 (NCI/ADR-RES ovarian): 37.1 µM | TGI (NCI/ADR-RES ovarian): > 100 µM | GI50 (M14 melanoma): 64.1 µM | TGI (M14 melanoma): > 100 µM | GI50 (SNB-75 CNS): 36.5 µM | TGI (SNB-75 CNS): > 100 µM | GI50 (CAKI-1 renal): 53 µM | TGI (CAKI-1 renal): > 100 µM | GI50 (786-0 renal): 23.6 µM | TGI (786-0 renal): 77.9 µM | GI50 (RXF 393 renal): 2.09 µM | TGI (RXF 393 renal): 5 µM | GI50 (OVCAR-4 ovarian): 22.3 µM | TGI (OVCAR-4 ovarian): > 100 µM | GI50 (TK-10 renal): 20.6 µM | TGI (TK-10 renal): 60.3 µM | GI50 (UO-31 renal): 66.2 µM | TGI (UO-31 renal): > 100 µM | GI50 (SW-620 colon): 82.3 µM | TGI (SW-620 colon): > 100 µM | GI50 (NCI-H23 lung): 76.2 µM | TGI (NCI-H23 lung): > 100 µM | GI50 (HS 578T breast): 12.6 µM | TGI (HS 578T breast): 71.4 µM | GI50 (OVCAR-3 ovarian): 41.9 µM | TGI (OVCAR-3 ovarian): > 100 µM | GI50 (RPMI-8226 leukemia): 42 µM | TGI (RPMI-8226 leukemia): > 100 µM | GI50 (SK-MEL-5 melanoma): 69.3 µM | TGI (SK-MEL-5 melanoma): > 100 µM | GI50 (SK-MEL-28 melanoma): > 100 µM | TGI (SK-MEL-28 melanoma): > 100 µM | GI50 (A549 NSCLC): 29.5 µM | TGI (A549 NSCLC): > 100 µM | GI50 (EKVX NSCLC): 73.5 µM | TGI (EKVX NSCLC): > 100 µM | GI50 (MDA-MB-231 breast): 18.2 µM | TGI (MDA-MB-231 breast): 47.3 µM | GI50 (HCC-2998 colon): 59.2 µM | TGI (HCC-2998 colon): > 100 µM | GI50 (MCF7 breast): 41.2 µM | TGI (MCF7 breast): > 100 µM | GI50 (SNB-19 CNS): > 100 µM | TGI (SNB-19 CNS): > 100 µM | GI50 (KM12 colon): 36.7 µM | TGI (KM12 colon): > 100 µM | GI50 (MDA-MB-435): > 100 µM | TGI (MDA-MB-435): > 100 µM

— PubChem BioAssay (NCI)
